Experimental data from PMC8945041 (Biomedicines, 2022).
Like-named read-outs stand apart in the source and are kept apart here.

Assays:
[1] = pH 7.4
[2] = pH 7.4; remark: listed apart in the source
Erythrocytes = type: binding, human; settings: for Kd: read-out: Kd (apparent dissociation constant), Erythrocytes
PBMCs = type: binding, human; settings: for Kd: read-out: Kd (apparent dissociation constant), PBMCs
[3] = tested on: POPC and POPC:Chol (2:1) LUV, erythrocytes and PBMCs; type: binding, human

VIKI–GSGSG-C-dPEG4–Cys–(CH2CONH2) [VIKI-dPEG4]
maximum fluorescence emission wavelength, free in solution [1]: 356 nm
secondary structure by CD [2]: random coil

VIKI–GSGSG–C-dPEG4–Cys–(PEG4-bis-cholesterol) [VIKI-dPEG4-bisChol]
Rmin, Erythrocytes (Erythrocytes): −0.36 ± 0.01
Kd (Erythrocytes; 1.4% DMSO): 70 ± 20 nM
Rmin, PBMCs (PBMCs): −0.24 ± 0.01
Kd (PBMCs; 1.4% DMSO): 220 ± 50 nM

VIKI–GSGSG–C-dPEG4–Cys–cholesterol [VIKI-dPEG4-Chol]
Rmin, Erythrocytes (Erythrocytes): −0.33 ± 0.01
Kd (Erythrocytes; 1.4% DMSO): 130 ± 30 nM
Rmin, PBMCs (PBMCs): −0.23 ± 0.02
Kd (PBMCs; 1.4% DMSO): 300 ± 120 nM

VIKI–GSGSG–C-dPEG4–Cys–tocopherol [VIKI-dPEG4-Toco]
Rmin, Erythrocytes (Erythrocytes): −0.30 ± 0.01
Kd (Erythrocytes): 140 ± 30 nM
Rmin, PBMCs (PBMCs): −0.29 ± 0.02
Kd (PBMCs): 510 ± 120 nM

tocopherol
change in membrane dipole potential (di-8-ANEPPS) [3]: no changes in dipole potential were observed

VIKI–GSGSG–C-dPEG4–Cys-(PEG4-bis-tocopherol) [VIKI-dPEG4-bisToco]
Rmin, Erythrocytes (Erythrocytes): −0.22 ± 0.01
Kd (Erythrocytes): 90 ± 30 nM
Rmin, PBMCs (PBMCs): −0.27 ± 0.01
Kd (PBMCs): 180 ± 40 nM

CC(C)CCC[C@@H](C)[C@H]1CC[C@H]2[C@@H]3CC=C4C[C@@H](O)CC[C@]4(C)[C@H]3CC[C@]12C [cholesterol]
change in membrane dipole potential (di-8-ANEPPS) [3]: no changes in dipole potential were observed
